Experimental data: patent US10973832B2, “Muscarinic M1 receptor agonists” (Heptares Therapeutics Limited, priority 2011, dated 2021)

Assays:
Male Wistar rats = test: Novel object recognition; format: in vivo
Method: The novel object recognition paradigm is based on the greater spontaneous exploration of a novel object, compared with a familiar object, shown by rodents (Ennaceur and Delacour, 1988). […] Male Wistar rats were assessed for cognitive ability in a test apparatus comprising an open-field arena placed in a sound-attenuated room under dimmed lighting. Images of the open-field were captured by digital camera, and viewed on a monitor in an adjoining room. Each rat was subjected to the procedure separately and care taken to remove any olfactory/taste cues by cleaning the arena and test objects with alcohol between trials and rats. All tests are video scored blind to treatment. Following a 10-minute habituation period, each rat was placed into the test arena in the presence of two identical objects (plastic shapes). Each rat was placed facing the same direction at the same position in the arena, and the time spent actively exploring the objects during a 5-minute training period (T1) was recorded. The rat is returned to its home cage between tests. After 24 hours, each rat was again placed in the test arena for 5 minutes (T2) in the presence of one of the familiar objects and a novel object, and the time spent exploring both objects again recorded. The presentation order and position of the objects (left/right) was randomized between rats to prevent bias from order or place preference. Doses of 3, 10 or 30 mg/kg of test compound were administered by oral gavage 90 minutes prior to training (n=8). Donepezil (0.1 mg/kg) and galanthamine (3 mg/kg) were administered via intraperitoneal injection 60 minutes prior to training. Vehicle-treated controls were employed for comparison.

[1] = molecular target: T1, human muscarinic M1 receptor (Homo sapiens, UniProt P11229); test: Phospho-ERK1/2 assay, muscarinic M1; format: cell-based; conditions: for EC50: CHO cells expressing human M1, phospho-ERK1/2 Alphascreen, read-out: pEC50 M1 (converted); for Emax: CHO, read-out: % Emax cf. ACh (M1)
T1 sequence (P11229 1-460): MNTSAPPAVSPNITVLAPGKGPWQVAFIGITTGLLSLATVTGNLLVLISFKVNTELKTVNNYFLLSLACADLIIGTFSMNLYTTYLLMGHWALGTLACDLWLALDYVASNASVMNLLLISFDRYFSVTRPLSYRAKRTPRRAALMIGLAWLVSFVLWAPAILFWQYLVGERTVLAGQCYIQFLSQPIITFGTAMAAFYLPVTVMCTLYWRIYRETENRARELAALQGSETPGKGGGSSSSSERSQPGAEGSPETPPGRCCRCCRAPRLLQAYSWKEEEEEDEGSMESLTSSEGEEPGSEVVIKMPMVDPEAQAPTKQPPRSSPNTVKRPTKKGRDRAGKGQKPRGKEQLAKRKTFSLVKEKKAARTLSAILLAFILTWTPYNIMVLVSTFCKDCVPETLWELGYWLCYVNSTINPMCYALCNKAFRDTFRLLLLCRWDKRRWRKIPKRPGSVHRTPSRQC
Method: (§1) Functional assays were performed using the Alphascreen Surefire phospho-ERK1/2 assay (Crouch & Osmond, Comb. Chem. High Throughput Screen, 2008). ERK1/2 phosphorylation is a downstream consequence of both Gq/11 and Gi/o protein coupled receptor activation, making it highly suitable for the assessment of M1, M3 (Gq/11 coupled) and M2, M4 receptors (Gi/o coupled), rather than using different assay formats for different receptor subtypes. CHO cells stably expressing the human muscarinic M1, M2, M3 or M4 receptor were plated (25K/well) onto 96-well tissue culture plates in MEM-alpha+10% dialysed FBS. Once adhered, cells were serum-starved overnight. Agonist stimulation was performed by the addition of 5 μL agonist to the cells for 5 min (37° C.). Media was removed and 50 μL of lysis buffer added. After 15 min, a 4 μL sample was transferred to 384-well plate and 7 μL of detection mixture added. Plates were incubated for 2 h with gentle agitation in the dark and then read on a PHERAstar plate reader.
(§2) pEC50 and Emax figures were calculated from the resulting data for each receptor subtype.

[2] = molecular target: T2, human muscarinic M2 receptor (Homo sapiens, UniProt P08172); test: Phospho-ERK1/2 assay, muscarinic M2; format: cell-based; conditions: for EC50: CHO cells expressing human M2, phospho-ERK1/2 Alphascreen, read-out: pEC50 M2 (converted); for Emax: CHO, read-out: % Emax cf. ACh (M2)
T2 sequence (P08172 1-466): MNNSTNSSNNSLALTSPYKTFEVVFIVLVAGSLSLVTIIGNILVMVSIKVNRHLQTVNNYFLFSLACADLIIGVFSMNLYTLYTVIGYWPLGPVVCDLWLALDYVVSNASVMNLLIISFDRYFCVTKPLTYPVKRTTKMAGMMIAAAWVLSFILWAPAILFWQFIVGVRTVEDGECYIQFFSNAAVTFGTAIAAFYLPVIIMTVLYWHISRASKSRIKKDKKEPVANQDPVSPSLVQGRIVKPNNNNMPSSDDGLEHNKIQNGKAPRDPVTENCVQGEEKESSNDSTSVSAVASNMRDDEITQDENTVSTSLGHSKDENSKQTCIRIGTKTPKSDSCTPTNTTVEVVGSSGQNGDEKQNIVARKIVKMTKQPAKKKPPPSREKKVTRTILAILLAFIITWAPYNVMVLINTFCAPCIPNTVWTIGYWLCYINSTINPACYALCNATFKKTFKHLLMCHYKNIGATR
Method: as §1, §2

[3] = molecular target: T3, human muscarinic M3 receptor (Homo sapiens, UniProt P20309); test: Phospho-ERK1/2 assay, muscarinic M3; format: cell-based; conditions: for EC50: CHO cells expressing human M3, phospho-ERK1/2 Alphascreen, read-out: pEC50 M3 (converted); for Emax: CHO, read-out: % Emax cf. ACh (M3)
T3 construct: expressed in transfected cells
T3 sequence (P20309 whole entry): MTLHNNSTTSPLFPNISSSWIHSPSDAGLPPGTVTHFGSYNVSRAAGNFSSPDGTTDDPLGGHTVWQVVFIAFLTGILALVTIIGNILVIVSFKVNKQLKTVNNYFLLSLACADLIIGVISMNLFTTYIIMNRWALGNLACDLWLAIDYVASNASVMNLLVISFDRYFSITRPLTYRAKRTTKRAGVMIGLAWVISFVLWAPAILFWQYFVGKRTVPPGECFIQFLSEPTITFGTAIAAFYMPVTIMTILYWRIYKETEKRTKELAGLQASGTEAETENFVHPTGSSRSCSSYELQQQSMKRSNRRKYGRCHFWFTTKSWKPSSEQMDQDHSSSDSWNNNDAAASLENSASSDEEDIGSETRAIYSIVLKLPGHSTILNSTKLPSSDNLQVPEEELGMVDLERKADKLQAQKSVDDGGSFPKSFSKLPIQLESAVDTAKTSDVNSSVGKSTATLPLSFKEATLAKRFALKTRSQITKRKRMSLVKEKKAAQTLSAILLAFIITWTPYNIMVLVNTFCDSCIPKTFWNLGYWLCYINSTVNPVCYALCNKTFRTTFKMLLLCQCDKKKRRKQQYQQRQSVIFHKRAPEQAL
Method: as §1, §2

[4] = molecular target: T4, human muscarinic M4 receptor (Homo sapiens, UniProt P08173); test: Phospho-ERK1/2 assay, muscarinic M4; format: cell-based; conditions: for EC50: CHO cells expressing human M4, phospho-ERK1/2 Alphascreen, read-out: pEC50 M4 (converted); for Emax: CHO, read-out: % Emax cf. ACh (M4)
T4 construct: expressed in transfected cells
T4 sequence (P08173 1-479): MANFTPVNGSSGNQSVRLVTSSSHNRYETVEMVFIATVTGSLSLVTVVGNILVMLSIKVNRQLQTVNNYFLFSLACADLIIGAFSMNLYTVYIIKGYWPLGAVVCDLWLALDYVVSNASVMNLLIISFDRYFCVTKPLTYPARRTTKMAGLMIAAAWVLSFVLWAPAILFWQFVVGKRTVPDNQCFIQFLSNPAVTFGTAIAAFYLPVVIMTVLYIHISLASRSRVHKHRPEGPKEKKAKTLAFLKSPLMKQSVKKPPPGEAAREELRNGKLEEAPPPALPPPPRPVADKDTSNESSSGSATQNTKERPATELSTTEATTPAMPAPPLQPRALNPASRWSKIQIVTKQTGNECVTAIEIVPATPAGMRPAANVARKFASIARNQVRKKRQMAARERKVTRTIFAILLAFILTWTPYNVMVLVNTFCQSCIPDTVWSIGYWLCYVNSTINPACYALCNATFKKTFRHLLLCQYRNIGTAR
Method: as §1, §2

[5] = system: CA1 region of rat hippocampal slices; test: CA1 cell firing (fEPSP amplitude); format: cell-based; conditions: five point cumulative concentration-response, 6 slices averaged
Method: Rat hippocampal slices of […] thickness were cut in chilled (<4° C.) artificial cerebrospinal fluid (aCSF, composition in mM: NaCl 127, KCl 1.6, KH2PO4 1.24, MgSO4 1.3, CaCl2 2.4, NaHCO3 26 and D-glucose 10) using vibratome. Slices were maintained in oxygenated (95% O2/5% CO2) aCSF at room temperature for at least 1 hr prior to electrophysiological recording, after which they were transferred to an interface chamber and constantly perfused with warmed (30° C.) oxygenated aCSF at a flow rate of 1.5-3 ml·min−1. Schaffer collaterals were then stimulated (1-20 V, 0.1 ms pulse width, 0.033 Hz) with a concentric bipolar electrode to evoke field excitatory post synaptic potentials (fEPSPs) recorded from the stratum radiatum of the CA1 region.
Experiments were performed to examine the effect of compound compared to […] carbachol (CCh), on the amplitude of fEPSPs in the CA1 region of rat hippocampal slices. 1 μM CCh was initially applied until steady-state, followed by wash, before performing a five point cumulative concentration-response to compound. Each compound was tested on 6 slices and results averaged. Drug preparation; compound was dissolved in 100% DMSO at a stock concentration of 30 mM, and diluted according to requirements, carbamoylcholine chloride (CCh) was purchased from Sigma (Cat #C4382) and dissolved at a stock concentration of 1 mM in ddH2O.

EC50 [1] [nM]	Emax [1] [%]	EC50 [2] [nM]	Emax [2] [%]	EC50 [3] [nM]	Emax [3] [%]	EC50 [4] [nM]	Emax [4] [%]	EC50 [5] [nM]	Compound	novel object recognition memory vs vehicle-treated controls (Male Wistar rats; 0.1 mg/kg intraperitoneal 60 minutes prior to training)	novel object recognition memory vs vehicle-treated controls (Male Wistar rats; 3 mg/kg intraperitoneal 60 minutes prior to training, p<0.05)
									COc1cc2c(cc1OC)C(=O)C(CC1CCN(Cc3ccccc3)CC1)C2 (stereo not drawn) [Donepezil, donepezil]	without effect on novel object recognition	
85.1	113	> 20000	10	> 20000	33	1050	76	4100	CCOC(=O)N1CCCC(N2CCC(C(=O)NCC(C)C)CC2)CC1 (stereo not drawn) [Example 6, ethyl 4-(4-((2-methylpropyl)carbamoyl)piperidin-1-yl)azepane-1-carboxylate]		
45.7	106	> 20000	13	> 20000	9	851	89	9400	CCOC(=O)N1CCCC(N2CCC(F)(C(=O)NCC(C)C)CC2)CC1 (stereo not drawn) [Example 40, ethyl 4-(4-fluoro-4-((2-methylpropyl)carbamoyl)piperidin-1-yl)azepane-1-carboxylate]		
42.7	115	> 20000	5	> 20000	0	417	51		CCOC(=O)N1CCCC(N2CCC(C)(C(=O)NC3(C)CCC3)CC2)CC1 (stereo not drawn) [Example 78, ethyl 4-{4-methyl-4-[(1-methylcyclobutyl)carbamoyl]piperidin-1-yl}azepane-1-carboxylate]		
97.7	113	> 20000	7	> 20000	27	871	27		CCOC(=O)N1CCCC(N2CCC(OC)(C(=O)NC3(C)CCC3)CC2)CC1 (stereo not drawn) [Example 79, ethyl 4-{4-methoxy-4-[(1-methylcyclobutyl)carbamoyl]piperidin-1-yl}azepane-1-carboxylate]		
37.2	89	> 20000	15	> 20000	7	525	71		CC#CCOC(=O)N1CCCC(N2CCC(OC)(C(=O)NC3(C)CCC3)CC2)CC1 (stereo not drawn) [Example 80, but-2-yn-1-yl 4-{4-methoxy-4-[(1-methylcyclobutyl)carbamoyl]piperidin-1-yl}azepane-1-carboxylate]		
141	110	> 20000	0	> 20000	7	> 20000	9		CCOC(=O)N1CCCC(N2CCC(OC)(C(=O)NCC3(C)CCC3)CC2)CC1 (stereo not drawn) [Example 81, ethyl 4-(4-methoxy-4-{[(1-methylcyclobutyl)methyl]carbamoyl}piperidin-1-yl)azepane-1-carboxylate]		
55	89	> 20000	16	> 20000	2	1620	81		CCOC(=O)N1CCCC(N2CCC(C#N)(C(=O)NC3(C)CCC3)CC2)CC1 (stereo not drawn) [Example 82, ethyl 4-{4-cyano-4-[(1-methylcyclobutyl)carbamoyl]piperidin-1-yl}azepane-1-carboxylate]		
									COc1ccc2c3c1O[C@H]1C[C@@H](O)C=C[C@@]31CCN(C)C2 [galanthamine]		significantly improved novel object recognition memory
